Assay results as given in patent publication US20050215548A1 (Cyclacel Limited, priority 2002, published 2005).
Like-named read-outs stand apart in the source and are kept apart here.

What was measured:
[1] = system: IMR90; test: 72-h MTT cytotoxicity assay, IMR90; format: cell-based; details: Homo sapiens, IMR-90, 72 h; IMR90, Lung fibroblasts; read-out: Anti-proliferative activity, 72-h MTT IC50
Experimental: (§1) Representative bisarylsulfonamide compounds were tested on a panel of transformed and non-transformed human cell lines, using a standard 72-h MTT cytotoxicity assay [Haselsberger K et al, ibid].

[2] = system: carcinoma cell lines; test: 72-h MTT panel, average carcinomas; format: cell-based; details: Homo sapiens, average over carcinoma cell lines, read-out: Anti-proliferative activity, 72-h MTT IC50, Average carcinomas
Experimental: as §1
(§2) This differential selectivity further supports the notion that the bisarylsulfonamides modulate cellular HDM2 function. It is known that HDM2 amplification is particularly common in soft tissue sarcomas and osteosarcomas [Momand J et al, ibid; Bartel F, Meye A, Wurl P, Kappler M, Bache M, Lautenschlager C, Grunbaum U, Schmidt H, Taubert H; Int. J. Cancer 2001; 95: 168-175].

[3] = system: transformed human cell lines; test: 72-h MTT panel, average transformed; format: cell-based; details: average over transformed cell lines, read-out: Anti-proliferative activity, 72-h MTT IC50, Average transformed
Experimental: as §1, §2

[4] = system: SK-N-MC; test: 72-h MTT cytotoxicity assay, SK-N-MC; format: cell-based; details: Homo sapiens, Neuriepithelioma, read-out: Anti-proliferative activity, 72-h MTT IC50
Experimental: as §1

[5] = target: T1, HDM2 (Homo sapiens, UniProt Q00987); test: Fluorescence polarisation competitive HDM2 binding assay
T1 construct: Recombinant HDM2 (1.5 μg per well) in TBS-BSA buffer
T1 sequence (Q00987 whole entry): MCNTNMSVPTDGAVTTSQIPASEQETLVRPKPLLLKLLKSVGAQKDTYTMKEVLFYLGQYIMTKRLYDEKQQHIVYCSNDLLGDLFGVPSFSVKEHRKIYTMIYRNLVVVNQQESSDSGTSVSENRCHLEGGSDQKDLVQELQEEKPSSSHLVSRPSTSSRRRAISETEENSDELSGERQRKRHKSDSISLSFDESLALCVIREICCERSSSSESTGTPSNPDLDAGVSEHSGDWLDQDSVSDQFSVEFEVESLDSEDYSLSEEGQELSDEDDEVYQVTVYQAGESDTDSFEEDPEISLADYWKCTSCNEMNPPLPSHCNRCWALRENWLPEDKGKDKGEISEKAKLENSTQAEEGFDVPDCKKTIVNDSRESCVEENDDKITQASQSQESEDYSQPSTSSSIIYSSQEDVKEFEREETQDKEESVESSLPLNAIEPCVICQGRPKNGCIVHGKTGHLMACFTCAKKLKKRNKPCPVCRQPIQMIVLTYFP
Procedure, shortened: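 Recombinant HDM2 (1.5 μg/well) was preincubated 5 min at room temperature with serially diluted compound in 50 mM Tris pH 7.4, 150 mM NaCl, 0.1% BSA, 5% DMSO final. Fluorescein-labelled p53 peptide (0.2 μM) was then added for 45 min. Polarisation was read at 485/520 nm and IC50 derived from dose-response curves.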

[6] = system: non-transformed human cell lines; test: 72-h MTT panel, average non-transformed; format: cell-based; details: average over non-transformed cell lines, read-out: Anti-proliferative activity, 72-h MTT IC50, Average non-transformed
Experimental: as §1, §2

[7] = system: NaCat; test: 72-h MTT cytotoxicity assay, NaCat; format: cell-based; details: Keratinocyte, Human keratinocytes, read-out: Anti-proliferative activity, 72-h MTT IC50
Experimental: as §1

[8] = system: Lovo; test: 72-h MTT cytotoxicity assay, Lovo; format: cell-based; details: Homo sapiens, Colon adenocarcinoma, read-out: Anti-proliferative activity, 72-h MTT IC50
Experimental: as §1

[9] = system: Saos-2; test: 72-h MTT cytotoxicity assay, Saos-2; format: cell-based; details: Homo sapiens, Saos-2, Osteosracoma, read-out: Anti-proliferative activity, 72-h MTT IC50
Experimental: as §1

[10] = system: MCF7; test: 72-h MTT cytotoxicity assay, MCF7; format: cell-based; details: Homo sapiens, MCF7, Breast adenocarcinoma, read-out: Anti-proliferative activity, 72-h MTT IC50
Experimental: as §1

[11] = system: HT29; test: 72-h MTT cytotoxicity assay, HT29; format: cell-based; details: Homo sapiens, HT-29, 72 h; HT29, Colon adenocarcinoma; read-out: Anti-proliferative activity, 72-h MTT IC50
Experimental: as §1

[12] = system: H1299; test: 72-h MTT cytotoxicity assay, H1299; format: cell-based; details: Homo sapiens
Procedure, shortened: (§3)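 Bisarylsulfonamides are applied to human cancer cells and growth inhibition is read by MTT. H1299 lung carcinoma lacks p53 and expresses little HDM2, SJSA-1 osteosarcoma-type cells are p53 wild-type with high HDM2, and AGS gastric cells retain wild-type p53.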

[13] = system: sarcoma cell lines; test: 72-h MTT panel, average sarcomas; format: cell-based; details: Homo sapiens, average over sarcoma cell lines, read-out: Anti-proliferative activity, 72-h MTT IC50, Average sarcomas
Experimental: as §1, §2

[14] = system: SJSA-1; test: 72-h MTT cytotoxicity assay, SJSA-1; format: cell-based; details: Homo sapiens
Procedure, shortened: as §3

[15] = system: p53; test: p53 reporter gene assay (U2OS-derived luciferase reporter cell line); details: for Fold induction of luciferase activity: compared to basal luciferase activity, 16-h time point, at concentration of maximal induction; for Concentration (test compound concentration at which the p53 induction was maximal): p53 reporter, U2OS-derived cell line
Experimental: A dual assay assessing both cell viability and p53 response was employed. A U2OS-derived cell line stably transfected with a p53 response element and a luciferase reporter gene was created. […] After seeding of cells into 96-well tissue culture plates, treatment with test compounds, and incubation for the desired duration, the cell proliferation reagent WST-1 (Roche Molecular Biochemicals) was used to determine cell viability. The Bright-Glo™ Luciferase Assay System (Promega) was used to measure luciferase activity. The data from the cell viability assay was used to normalise data from the luciferase assay.

[16] = system: A549; test: 72-h MTT cytotoxicity assay, A549; format: cell-based; details: Homo sapiens, A549, Lung carcinoma, read-out: Anti-proliferative activity, 72-h MTT IC50
Experimental: as §1

[17] = system: SKUT-1; test: 72-h MTT cytotoxicity assay, SKUT-1; format: cell-based; details: Homo sapiens, SK-UT-1, 72 h; SKUT-1, Uterus leiomyosarcoma; read-out: Anti-proliferative activity, 72-h MTT IC50
Experimental: as §1

[18] = system: HS27; test: 72-h MTT cytotoxicity assay, HS27; format: cell-based; details: Homo sapiens, HS27, Foreskin fibroblasts, read-out: Anti-proliferative activity, 72-h MTT IC50
Experimental: as §1

[19] = system: Messa; test: 72-h MTT cytotoxicity assay, Messa; format: cell-based; details: Homo sapiens, MES-SA, Uterus sarcoma, read-out: Anti-proliferative activity, 72-h MTT IC50
Experimental: as §1

[20] = system: Messa-Dx5; test: 72-h MTT cytotoxicity assay, Messa-Dx5; format: cell-based; details: Homo sapiens, MES-SA/Dx5, 72 h; Messa-Dx5, Uterus sarcoma; read-out: Anti-proliferative activity, 72-h MTT IC50
Experimental: as §1

[21] = system: U2OS; test: 72-h MTT cytotoxicity assay, U2OS; format: cell-based; details: Homo sapiens, Osteosracoma, read-out: Anti-proliferative activity, 72-h MTT IC50
Experimental: as §1

[22] = system: AGS; test: 72-h MTT cytotoxicity assay, AGS; format: cell-based; details: Homo sapiens
Procedure, shortened: as §3

[23] = system: DU145; test: 72-h MTT cytotoxicity assay, DU145; format: cell-based; details: Homo sapiens, DU-145, 72 h; DU145, Prostate carcinoma; read-out: Anti-proliferative activity, 72-h MTT IC50
Experimental: as §1

[24] = system: HeLa; test: 72-h MTT cytotoxicity assay, HeLa; format: cell-based; details: Homo sapiens, Cervical carcinoma, read-out: Anti-proliferative activity, 72-h MTT IC50
Experimental: as §1

[25] = system: Nci-H460; test: 72-h MTT cytotoxicity assay, Nci-H460; format: cell-based; details: Homo sapiens, Nci-H460, Large cell lung carcinoma, read-out: Anti-proliferative activity, 72-h MTT IC50
Experimental: as §1

[26] = system: WI38; test: 72-h MTT cytotoxicity assay, WI38; format: cell-based; details: Homo sapiens, WI-38, 72 h; WI38, Lung fibroblasts; read-out: Anti-proliferative activity, 72-h MTT IC50
Experimental: as §1

[27] = system: HCT116; test: 72-h MTT cytotoxicity assay, HCT116; format: cell-based; details: Homo sapiens, HCT-116, 72 h; HCT116, Colon carcinoma; read-out: Anti-proliferative activity, 72-h MTT IC50
Experimental: as §1

[28] = system: AGS, H1299, MCF7 or SJSA1 cells; test: Cell morphology (cell rounding); format: cell-based, human; details: five times IC50
From the text: Equal amounts of cell lysate were separated by SDS-PAGE and analysed by immunoblotting using the indicated antibodies. An estimation of the extent of cell rounding is indicated above each lane. The arrow indicates the position of a 85-kDa cleavage product of PARP, indicative of apoptosis. (B) The effect of compound 2 on the levels of the cell cycle proteins in AGS cells (wild-type 53). […] Equal amounts of cell lysate were separated by SDS-PAGE and analysed by immunoblotting using the indicated antibodies. An estimation of the extent of cell rounding is indicated above each lane. (C) The effect of negative control compound (refer Example 10), compound 2, cisplatin, and anisomycin on the levels of key proteins in MCF7 cells. […] Cisplatinum and anisomycin (a transcription inhibitor) treatments were with 50 μM or 37 μM, respectively. Cells were harvested at various time points; afterwards lysates were prepared and separated by SDS-PAGE and analysed by immunoblotting. The proteins detected are indicated. The extent of rounded or floating cells and the percentage viable cells were assessed. […] Equal amounts of cell lysate were separated by SDS-PAGE and analysed by immunoblotting using a range of antibodies. An estimation of the extent of cell rounding is indicated above each lane. […] SJSA1 cells were treated with 5 times [IC50] of compound 2 and collected at the indicated time points. Equal amounts of cell lysate were separated by SDS-PAGE and analysed by immunoblotting using a range of antibodies. An estimation of the extent of cell rounding is indicated above each lane.
Cells were treated with 5 times [IC50] of compound 2 and collected at various time points. The percentage of rounded cells was counted before cells were trypsinised and counted for cell viability using trypan blue.
Cells were lysed and equal amounts were analysed by SDS-polyacrylamide gel electrophoresis (SDS-PAGE) and immunoblotting. […] The reduction in E2F-1 levels correlated with reduction in E2F transcriptional activity as determined by an E2F-dependent luciferase reporter assay (refer Example 6).

[29] = system: E2F transcription factors; test: E2F reporter gene assay (A549-derived luciferase reporter cell line); format: cell-based; details: Homo sapiens; after 3-h treatment with test compounds; read-out: IC50 E2F reporter, Non-synchronised cells
Experimental: A similar system to the p53 reporter assay described above was used, with the exception that it was designed to be responsive to E2F transcription factors rather than p53. An A549-derived cell line stably transfected with an E2F response element and a luciferase reporter gene was created. The genetic expression cassette construct used was from Clontech (Mercury™ Cell Cycle Profiling System). Assays were carried out as described above.
Representative bisarylsulfonamides were tested in the E2F gene reporter assay described in Example 6.

[30] = fluorescence polarisation assay, Table 3, read-out: In vitro competitive HDM2 binding assay IC50
[31] = fluorescence polarisation format, Table 1, read-out: IC50 In vitro competitive HDM2 binding assay
[32] = NCI-H1299, 72-h MTT, Table 1, read-out: IC50 Anti-proliferative effect on cell line H 1299
[33] = 72-h MTT, Table 1, read-out: IC50 Anti-proliferative effect on cell line AGS

Question: How did the IC50 [1] turn out when `CN(c1ccc(F)cc1)S(=O)(=O)c1cc([N+](=O)[O-])c(Cl)s1` [Compound 7] was run?
Answer: 41.8 µM

Question: What about the IC50 [2] of the same compound?
Answer: 9.7 ± 4.7 µM

Question: And the IC50 [3]?
Answer: 10.2 ± 4.4 µM

Question: What about the IC50 [4] of the same compound?
Answer: 3 µM

Question: What about the IC50 [5, 30] of the same compound?
Answer: 15.4 ± 7.8 µM

Question: And the IC50 [5, 31]?
Answer: 15.4 ± 7.8 µM

Question: And the IC50 [6]?
Answer: 44.6 ± 6.9 µM

Question: And the IC50 [7]?
Answer: 12.9 µM

Question: What about the IC50 [8] of the same compound?
Answer: 8.5 µM

Question: What about the IC50 [9] of the same compound?
Answer: 13.3 µM

Question: And the IC50 [10]?
Answer: 11.2 µM

Question: And the IC50 [11]?
Answer: 4.6 µM

Question: What about the IC50 ([12]; NCI-H1299, 72 h, H1299, Large cell lung carcinoma, Table 2, read-out: Anti-proliferative activity, 72-h MTT IC50) of the same compound?
Answer: 14 µM

Question: And the IC50 [12, 32]?
Answer: 12.9 ± 0.7 µM

Question: What about the IC50 [13] of the same compound?
Answer: 11.3 ± 3.7 µM

Question: And the IC50 ([14]; 72 h, SJSA-1, Osteosracoma, Table 2, read-out: Anti-proliferative activity, 72-h MTT IC50)?
Answer: 17 µM

Question: What about the IC50 ([14]; SJSA-1, 72-h MTT, Table 1, read-out: IC50 Anti-proliferative effect on cell line SJSA-4) of the same compound?
Answer: 9.3 ± 2.7 µM

Question: And the “Fold induction of luciferase activity” value [15]?
Answer: 32 fold

Question: What about the “Concentration (test compound concentration at which the p53 induction was maximal)” value [15] of the same compound?
Answer: 9 µM

Question: And the IC50 [16]?
Answer: 19.3 µM

Question: What about the IC50 [17] of the same compound?
Answer: 6.1 µM

Question: What about the IC50 [18] of the same compound?
Answer: 39.2 µM

Question: And the IC50 [19]?
Answer: 8.1 µM

Question: What about the IC50 [20] of the same compound?
Answer: 7.6 µM

Question: What about the IC50 [21] of the same compound?
Answer: 8.8 µM

Question: And the IC50 [22, 33]?
Answer: 7 ± 1.3 µM

Question: And the IC50 ([22]; 72 h, Gastric adenocarcinoma, Table 2, read-out: Anti-proliferative activity, 72-h MTT IC50)?
Answer: 5 µM

Question: And the IC50 [23]?
Answer: 9.1 µM

Question: What about the IC50 [24] of the same compound?
Answer: 13.7 µM

Question: And the IC50 [25]?
Answer: 9.6 µM

Question: What about the IC50 [26] of the same compound?
Answer: 52.3 µM

Question: And the IC50 [27]?
Answer: 12.2 µM

Question: For `CC(Cc1c[nH]c2ccccc12)NS(=O)(=O)c1cc([N+](=O)[O-])c(Cl)s1` (centres unmarked) [Compound 49, 5-Chloro-4-nitrothiophene-2-sulfonic acid [2-(1H-indol-3-yl)-1-methylethyl]amide], which cell rounding [28] is on record?
Answer: even more rapid cell rounding

Question: And the IC50 [5, 30]?
Answer: 46.3 ± 4 µM

Question: And the IC50 [5, 31]?
Answer: 46.3 ± 4 µM

Question: And the IC50 [12, 32]?
Answer: 1.5 ± 0.4 µM

Question: And the IC50 ([14]; SJSA-1, 72-h MTT, Table 1, read-out: IC50 Anti-proliferative effect on cell line SJSA-1)?
Answer: 2 ± 0.2 µM

Question: What about the “Fold induction of luciferase activity” value [15] of the same compound?
Answer: 117 fold

Question: What about the “Concentration (test compound concentration at which the p53 induction was maximal)” value [15] of the same compound?
Answer: 5.5 µM

Question: What about the IC50 [29] of the same compound?
Answer: 36.3 ± 2.9 µM

Question: And the IC50 [22, 33]?
Answer: 2.2 ± 2.3 µM
